# According to publication PMC10349806 (Nature Communications, 2023):
# “And” between values parts separate entries of the source, which are not always exact repeats. Identical values can stand only once.
# Target: T1, PfCRT variant H123A (Plasmodium falciparum, UniProt Q9N623, A220S/H123A/I356T/K76T/M74I/N326S/N75E/Q271E/R371I)
# T1 sequence (Q9N623 1-424 M74I/N75E/K76T/H123A/A220S/Q271E/N326S/I356T/R371I): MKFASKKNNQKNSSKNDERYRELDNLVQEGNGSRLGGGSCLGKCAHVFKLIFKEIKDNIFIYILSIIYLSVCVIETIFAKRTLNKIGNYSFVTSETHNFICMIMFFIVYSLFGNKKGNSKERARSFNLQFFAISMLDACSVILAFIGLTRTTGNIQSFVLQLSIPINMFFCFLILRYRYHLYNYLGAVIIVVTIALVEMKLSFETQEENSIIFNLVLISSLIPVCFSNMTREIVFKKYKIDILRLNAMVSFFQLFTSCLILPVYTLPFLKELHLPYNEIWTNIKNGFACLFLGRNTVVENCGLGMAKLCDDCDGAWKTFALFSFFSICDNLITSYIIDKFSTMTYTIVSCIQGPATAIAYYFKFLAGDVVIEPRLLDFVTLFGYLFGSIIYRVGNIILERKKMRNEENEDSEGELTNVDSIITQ
# Assay: CQ uptake assay, oocytes expressing H123A
# Type: cell-based
# Protocol: Site-directed mutagenesis of PfCRT^Dd2 was performed as described using the megaprimer method with overlap extension[21],[54]. The primer pairs used are listed in Supplementary Table 6. Please note that a codon-optimized and oocyte-adapted version of PfCRT^Dd2 was used[22] (Supplementary Fig. 16). The resulting DNA fragment was cloned into the SP64T expression vector and verified by sequencing.
# Oocytes were obtained as described previously. Briefly, adult (>2 years old) female X. laevis frogs (NASCO) were anesthetized in a cooled solution of ethyl 3-amino benzoate methanesulfonate (0.1%, w/v), followed by a surgical removal of parts of the ovary. The ovary lobes were carefully dissected and small pieces of oocytes were incubated in Ca^2+-free ND96 buffer (96 mM NaCl, 2 mM KCl, 1 mM MgCl2 buffered with 5 mM HEPES/NaOH, pH 7.5) supplemented with collagenase D (0.1%, w/v; Roche), BSA (0.5%, w/v), and 9 mm Na2HPO4 at 18 °C for 14-16 h while gentle shaking. After incubation, the oocytes were carefully washed several times with ND96 buffer (96 mM NaCl, 2 mM KCl, 1.8 mM CaCl2, 1 mM MgCl2 buffered with 5 mM HEPES/NaOH, pH 7.5) supplemented with 100 mg l^−1 gentamycin). Defolliculated and healthy-looking stage V-VI oocytes were manually selected for RNA microinjection. The RNA was generated as following: The codon-optimized sequences of PfCRT variants were cloned into the pSP64T expression vector. After vector linearization using the restriction endonucleases BamHI or SalI (New England Biolabs), transcription was performed using the in vitro SP6 mMessage mMachine Kit (Ambion)[34]. The obtained RNA was kept at −80 °C and diluted with nuclease-free water to a concentration of 0.6 μg μl^−1. Precision-bore glass capillary tubes (3.5-inch glass capillaries; Drummond Scientific Co.) were pulled on a vertical puller (P-87 Flaming/Brown micropipette puller, Sutter Instrument Co.), graduated, and placed on a microinjector (Nanoject II Auto-Nanoliter Injector, Drummond Scientific Co.). 50 nl of nuclease-free water alone (control oocytes) or 50 nl of 0.6 μg μl^−1 RNA were injected under stereomicroscopic control. Injected oocytes were incubated for 46–72 h at 18 °C with twice-daily buffer changes before usage in experiments.
# Drug uptake assays were performed as described previously[21],[22],[24],[34]. […] The direction of radio-labeled drug transport is here from the mostly acidic extracellular solution (pH 4.5 or 6.0, as indicated) into the oocyte cytosol (pH ∼ 7.2), which corresponds to the efflux of drug from the acidic digestive vacuole (pH 5.2) into the parasite cytoplasm (pH 7.2). The topology of PfCRT in the oolemma is such that both the N- and C-terminus face the extracellular milieu[3],[22]. In the parasite, the N- and C-terminus face the lumen of the digestive vacuole. […] For determination of the amount of drug uptake for each oocyte, the reaction medium was removed and the oocytes were washed three times with 2 ml of ice-cold ND96 buffer. Each oocyte was individually transferred to a scintillation vial containing 5% sodium dodecyl sulfate (200 μl) for lysis. […] Oocytes that were injected with water instead of RNA were analyzed in parallel, representing the uptake of a drug by diffusion and/or endogenous permeation pathways. […] The specific PfCRT-mediated uptake was determined by subtracting the corresponding background value measured in water-injected oocytes from that of PfCRT-expressing oocytes. […]
compound,measurement,setting,value
"CCN(CC)CCCC(C)Nc1ccnc2cc(Cl)ccc12 (centres unmarked) [CQ, chloroquine]",Activity at pH 6.0,"H123A, 50 µM CQ, 1 h, mean ± SEM",4.85 ± 0.43 pmol h-1 oocyte-1
same,R-value,"H123A, CQ transport at pH 4.5 / pH 6.0",0.36 ± 0.09
same,H123A transport activity pH 4.5,"pH 4.5, single replicates, Fig 1d left",1.12 pmol oocyte-1 h-1 and 2.16 pmol oocyte-1 h-1 and 1.35 pmol oocyte-1 h-1 and 2.48 pmol oocyte-1 h-1
same,H123A R-value,"pH 4.5 vs pH 6.0, Fig 1d left",0.44 and 0.35 and 0.42 and 0.27 and 0.52
same,H123A transport activity pH 6.0,"pH 6.0, single replicates, Fig 1d left",6.18 pmol oocyte-1 h-1 and 3.21 pmol oocyte-1 h-1 and 5.14 pmol oocyte-1 h-1 and 4.96 pmol oocyte-1 h-1 and 4.77 pmol oocyte-1 h-1
